The source made the active and inactive calls. How the calls were made is not given here.
Tested on: CCRIS mutagenicity, Ames/micronucleus/aberration tests
Test: CCRIS mutagenicity studies
[1] = Test System: AMES SALMONELLA TYPHIMURIUM, Strain/Indicator: TA100, Metabolic Activation: NONE, Method: STANDARD PLATE

Measured: mutagenic call

COc1cccc2c1cc([N+](=O)[O-])c1c(C(=O)O)cc3c(c12)OCO3
active: End Point: IN VITRO CHROMOSOMAL ABERRATIONS, Test System: CHO (WBL) CELLS, Metabolic Activation: NONE active; positive | End Point: IN VITRO CHROMOSOMAL ABERRATIONS, Test System: CHO (WBL) CELLS, Metabolic Activation: RAT, LIVER, S-9, AROCLOR 1254 active; positive | End Point: IN VITRO CHROMOSOMAL ABERRATIONS, Test System: CHO CELLS, Metabolic Activation: NONE active; positive | End Point: IN VITRO CHROMOSOMAL ABERRATIONS, Test System: CHO CELLS, Metabolic Activation: S-9 active; positive | End Point: IN VITRO MICRONUCLEUS, Test System: CHO (WBL) CELLS, Metabolic Activation: RAT, LIVER, S-9, AROCLOR 1254 active; positive | End Point: IN VITRO MICRONUCLEUS, Test System: CHO CELLS, Metabolic Activation: S-9 active; positive | End Point: In vitro micronucleus, Test System: Human hepatoma (HepG2) cells, Metabolic Activation: None active; positive | Test System: AMES SALMONELLA TYPHIMURIUM, Strain/Indicator: TA98, Metabolic Activation: RAT, LIVER, S-9, AROCLOR 1254, Method: STANDARD PLATE active; positive | Test System: AMES SALMONELLA TYPHIMURIUM, Strain/Indicator: TA98, Metabolic Activation: RAT, LIVER, S-9, PHENOBARBITAL, Method: STANDARD PLATE active; positive | Test System: AMES SALMONELLA TYPHIMURIUM, Strain/Indicator: TA100, Metabolic Activation: NONE active; positive | Test System: AMES SALMONELLA TYPHIMURIUM, Strain/Indicator: TA100, Metabolic Activation: RAT, LIVER, S-9, AROCLOR 1254, Method: STANDARD PLATE active; positive | Test System: AMES SALMONELLA TYPHIMURIUM, Strain/Indicator: TA100, Metabolic Activation: RAT, LIVER, S-9, CLOPHEN A50 active; positive | Test System: AMES SALMONELLA TYPHIMURIUM, Strain/Indicator: TA100, Metabolic Activation: RAT, LIVER, S-9, PHENOBARBITAL, Method: STANDARD PLATE active; positive | Test System: AMES SALMONELLA TYPHIMURIUM, Strain/Indicator: TA100, Metabolic Activation: S-9, Method: STANDARD PLATE active; positive | Test System: AMES SALMONELLA TYPHIMURIUM, Strain/Indicator: TA102, Metabolic Activation: NONE, Method: STANDARD PLATE active; positive | Test System: AMES SALMONELLA TYPHIMURIUM, Strain/Indicator: TA1535, Metabolic Activation: NONE, Method: STANDARD PLATE active; positive | Test System: AMES SALMONELLA TYPHIMURIUM, Strain/Indicator: TA1535, Metabolic Activation: RAT, LIVER, S-9, PHENOBARBITAL, Method: STANDARD PLATE active; positive | Test System: AMES SALMONELLA TYPHIMURIUM, Strain/Indicator: TA1537, Metabolic Activation: NONE active; positive | Test System: AMES SALMONELLA TYPHIMURIUM, Strain/Indicator: TA1537, Metabolic Activation: NONE, Method: STANDARD PLATE active; positive | Test System: AMES SALMONELLA TYPHIMURIUM, Strain/Indicator: TA1537, Metabolic Activation: RAT, LIVER, S-9, CLOPHEN A50 active; positive | Test System: AMES SALMONELLA TYPHIMURIUM, Strain/Indicator: TA1537, Metabolic Activation: S-9, Method: STANDARD PLATE active; positive | Test System: AMES SALMONELLA TYPHIMURIUM, Strain/Indicator: TM677/8-AZAGUANINE, Metabolic Activation: NONE, Method: SUSPENSION/PLATE active; positive | Test System: AMES SALMONELLA TYPHIMURIUM, Strain/Indicator: YG1020, Metabolic Activation: NONE, Method: STANDARD PLATE active; positive | Test System: AMES SALMONELLA TYPHIMURIUM, Strain/Indicator: YG1024, Metabolic Activation: NONE, Method: STANDARD PLATE active; positive | Test System: AMES SALMONELLA TYPHIMURIUM, Strain/Indicator: YG1025, Metabolic Activation: NONE, Method: STANDARD PLATE active; positive | Test System: AMES SALMONELLA TYPHIMURIUM, Strain/Indicator: YG1029, Metabolic Activation: NONE, Method: STANDARD PLATE active; positive | Test System: CHINESE HAMSTER OVARY, Strain/Indicator: CHO-K1-BH4 (HGPRT), Metabolic Activation: NONE active; positive | Test System: MOUSE LYMPHOMA, Strain/Indicator: L5178Y TK+/TK-, Metabolic Activation: NONE active; positive | Test System: MOUSE LYMPHOMA, Strain/Indicator: L5178Y TK+/TK-, Metabolic Activation: RAT, LIVER, S-9, AROCLOR 1254 active; positive
inactive: Test System: AMES SALMONELLA TYPHIMURIUM, Strain/Indicator: D3052, Metabolic Activation: NONE, Method: STANDARD PLATE inactive; negative | Test System: AMES SALMONELLA TYPHIMURIUM, Strain/Indicator: D3052, Metabolic Activation: RAT, LIVER, S-9, PHENOBARBITAL, Method: STANDARD PLATE inactive; negative | Test System: AMES SALMONELLA TYPHIMURIUM, Strain/Indicator: G46, Metabolic Activation: NONE, Method: STANDARD PLATE inactive; negative | Test System: AMES SALMONELLA TYPHIMURIUM, Strain/Indicator: G46, Metabolic Activation: RAT, LIVER, S-9, PHENOBARBITAL, Method: STANDARD PLATE inactive; negative | Test System: AMES SALMONELLA TYPHIMURIUM, Strain/Indicator: TA98(NR), Metabolic Activation: NONE, Method: STANDARD PLATE inactive; negative | Test System: AMES SALMONELLA TYPHIMURIUM, Strain/Indicator: TA98, Metabolic Activation: NONE inactive; negative | Test System: AMES SALMONELLA TYPHIMURIUM, Strain/Indicator: TA98, Metabolic Activation: NONE, Method: STANDARD PLATE inactive; negative | Test System: AMES SALMONELLA TYPHIMURIUM, Strain/Indicator: TA98, Metabolic Activation: RAT, LIVER, S-9, CLOPHEN A50 inactive; negative | Test System: AMES SALMONELLA TYPHIMURIUM, Strain/Indicator: TA100(NR), Metabolic Activation: NONE, Method: STANDARD PLATE inactive; negative | Test System: AMES SALMONELLA TYPHIMURIUM, Strain/Indicator: TA100(NR), Metabolic Activation: S-9, Method: STANDARD PLATE inactive; negative | [1] inactive; negative | Test System: AMES SALMONELLA TYPHIMURIUM, Strain/Indicator: TA1535, Metabolic Activation: NONE inactive; negative | Test System: AMES SALMONELLA TYPHIMURIUM, Strain/Indicator: TA1535, Metabolic Activation: RAT, LIVER, S-9, CLOPHEN A50 inactive; negative | Test System: AMES SALMONELLA TYPHIMURIUM, Strain/Indicator: TA1538, Metabolic Activation: NONE inactive; negative | Test System: AMES SALMONELLA TYPHIMURIUM, Strain/Indicator: TA1538, Metabolic Activation: RAT, LIVER, S-9, CLOPHEN A50 inactive; negative | Test System: AMES SALMONELLA TYPHIMURIUM, Strain/Indicator: TA1978, Metabolic Activation: NONE, Method: STANDARD PLATE inactive; negative | Test System: AMES SALMONELLA TYPHIMURIUM, Strain/Indicator: TA1978, Metabolic Activation: RAT, LIVER, S-9, PHENOBARBITAL, Method: STANDARD PLATE inactive; negative | Test System: AMES SALMONELLA TYPHIMURIUM, Strain/Indicator: YG1021, Metabolic Activation: NONE, Method: STANDARD PLATE inactive; negative

Cn1cnc(-c2ccccc2)c1N=O
active: [1] active; positive

Source: PubChem BioAssay AID1259407 (Chemical Carcinogenesis Research Information System (CCRIS), 2018)
